{"source": "patent US11453642B2", "about": "“Oxygenated amino- or ammonium-containing sulfonic acid, phosphonic acid and carboxylic acid derivatives and their medical use” (GRI BIO, INC., priority 2011, dated 2022)", "key": {"[1]": {"tested_on": "Akt phosphorylation on Ser473", "assay": "Inhibition of activation of Akt kinase (phospho-Akt Ser473 assay in RBL-2H3 cells)", "assay_type": "cell-based, Rat", "conditions": "IgE and antigen 15 min, normalized to total Akt", "source_text": "The mast cell degranulation assay using the RBL-2H3 cell line (see example 6) was also used to determine the status of the PI3K/Akt axis. Activation of PI3K leads to production of PIP3 on the cytosolic side of the lipid bilayer. Akt is recruited to the PIP3 domain and subsequently activated by phosphorylation on residues Ser473 and Thr308. (Franke et al., Cell 81:727-736, (1995)). Once recruited to the membrane, it is phosphorylated and activated by other kinases (Hemmings, Science 275:628-630 (1997); Hemmings, Science 276:534 (1997); Downward. Science 279:673-674 (1998); Alessi et al., EMBO J. 15:6541-6551 (1996)). Western blotting of the phosphorylated Ser473 residue on Akt (phospho-Akt Ser473) is widely used to assess the level of activation of the PI3K/Akt axis.\nAll buffers and solutions used for the phosphor-Akt Ser473 assay were from Meso Scale Discovery. Tris Lysis Buffer consisted of 150 mM NaCl, 20 mM Tris, pH 7.5, 1 mM EDTA, 1 mM EGTA and 1% Triton-X-100. Complete Tris Lysis Buffer was prepared prior to use by addition of protease inhibitor, phosphatase inhibitors and PMSF. The 10× Tris Wash Buffer consisted of 500 mM Tris, pH 7.5, 1.5 M NaCl and 0.2% Tween-20. Blocker A was made up of bovine serum albumin in Tris Wash Buffer, Read Buffer T was used according to manufacturer's instructions. The Whole Cell Lysate Kits used were phospho-Akt Ser473 (K111000, Lot K0011749) and total ERK1/2 (K11107D, Lot K0011698) as a loading control.\nProtein assay: protein concentration was determined using the BCA (bicinchoninic acid) Protein Assay kit according to the manufacturer's instructions. Briefly, duplicate 10 μl samples of bovine serum albumin (BSA) standards, blank and lysates were incubated in a 96-well plate with 0.2 ml working reagent for 30 min at 37° C. Plates were cooled to room temperature for 5 min and absorbance at 562 nm was measured in a multi-mode plate reader. Protein concentrations were calculated using FlexStation 3 software (SoftMax Pro version 5.3), Protein concentration of lysates was determined from a standard curve (BSA) using a linear curve fit.\nPhosphoprotein assay: protein phosphorylation was determined using the MULTI-SPOT® Assay System (Meso Scale Discovery), providing simultaneous detection of phosphorylated and total proteins. Briefly, capture antibodies against phosphorylated and total protein are patterned on distinct spots in the same well of 96-well plates. Sandwich immunoassay and electrochemiluminescence detection technology are combined to measure intensity of the emitted light from phosphorylated and total protein spots. Analysis of phosphor-Akt Ser473 was performed according to the manufacturer's instructions. The optimal amount of protein was determined at 5 μg lysate per well for ERK1/2 and 10 μg/well for phospho-Akt Ser473, Plates were blocked with 25 μl/well Blocker A for 1 h at room temperature with gentle agitation. During this time, the lysates were thawed and diluted to the desired protein concentration in complete Tris Lysis Buffer. Plates were washed four times in Tris Wash Buffer and 25 μl lysate per well added. Plates were incubated for 1-3 h at room temperature with agitation according to the manufacturer's recommendations. Plates were washed four times with Tris Wash Buffer, followed by addition of 25 μl/well of the respective detection antibody and incubation for 1 h at room temperature, with agitation. After a final four washes with Tris Wash Buffer 150 μl/well, Read Buffer T was added and plates read on a SECTOR Imager 6000 plate reader.\nThe mean background signal from each plate was subtracted from averaged raw data. The amount of total protein phosphorylated was expressed as % phosphoprotein according to the manufacturer's (Meso Scale Discovery) instructions.\nLevels of phospho-Akt Ser473 were determined in IgE sensitized and antigen stimulated cells after treatment without (positive control) or with 1, 5 and 25 μM test compound and normalized to levels of total Akt."}, "[2]": {"tested_on": "local lymph node reaction", "assay": "Local lymph node weight and cell count after TDI challenge", "assay_type": "in vivo, mice", "conditions": "topical 1a 2% or 6%, diflorasone 0.1% and 0.5%", "experimental": "Directly after sacrifice, the ear draining lymph node (Ln. auricularis) was prepared and excised. Organ weight was determined by means of an analytical balance (Kern, Balingen, Germany). Single cell suspensions were prepared by means of a glass potter (VWR, Darmstadt, Germany) and cells were counted with a hemocytometer (Neubauer, VWR, Germany).\nOne of the most undesirable side-effects of corticosteroid administration is immunosuppression, which leads to the inability to effectively address parasitic infection, wound healing and tumor growth. In the current study, the local lymph node reaction after TDI challenge (lymph node weight and cell number) was determined to assess the response of immune organs."}, "[3]": {"assay": "Pharmacokinetic study after a single oral administration to mice", "assay_type": "in vivo", "experimental": "The aim of the study was to evaluate pharmacokinetic (PK) properties of five different batches including anhydrates and monohydrates of the crystal form A of compound 1a (cf. Table 1 in Example 5) after a single oral administration to mice. Three of the forms were anhydrous and two were monohydrates.\nCompound 1a was administered as a suspension of 0.5% methyl cellulose (Sigma-Aldrich) in water at a dose of 100 mg/kg (10 ml/kg) by oral gavage to non-fasted female Balb/c mice (n=3).\nBlood was collected by decapitation at 0.5, 1, 2, 4, 8, 12, 24, and 48 h after administration. Blood plasma was isolated by centrifugation at 4° C. (20,000×g for 10 min), transferred to microtubes containing lithium-heparin and frozen in aliquots at −70° C. until assayed by mass-spectrometry. Mean plasma concentration-time profiles (semi-logarithmic) of the five polymorphic crystal forms of compound 1a are shown in FIG. 6.\nFor PK evaluation, summary statistics and plotting of concentration/time curves, all values below the lower limit of quantification (LLOQ) were set to zero."}}, "data": [{"smiles": "CCCCCCCCCCCCN(C)CC(O)CS(=O)(=O)O", "note": "(stereo not drawn) [Compound 1c, 2-hydroxy-3-(N-methyldodecylammonio)propanesulfonate]", "values": [{"measurement": "Level of phospho-Akt Ser473", "setting": "[1]; 1 μM", "value": "119.7 ± 35.7", "unit": "% positive control"}, {"measurement": "Level of phospho-Akt Ser473", "setting": "[1]; 5 μM", "value": "67.9 ± 17.3", "unit": "% positive control"}, {"measurement": "Level of phospho-Akt Ser473", "setting": "[1]; 25 μM", "value": "17.4 ± 6.4", "unit": "% positive control"}]}, {"smiles": "CCCCCCCCCCCCCCCCN(C)CC(O)CS(=O)(=O)O", "note": "(stereo not drawn) [Compound 1a, 2-hydroxy-3-(N-methylhexadecylammonio)propane-sulfonate]", "values": [{"measurement": "local lymph node reaction (lymph node weight and cell number)", "setting": "[2]", "value": "did not have any impact"}, {"measurement": "tmax", "setting": "[3]; female, Balb/c, mouse, plasma, po, 100 mg/kg, female Balb/c mice, single oral 100 mg/kg in 0.5% methylcellulose, plasma, read-out: tmax", "value": "1 to 2", "unit": "h"}, {"measurement": "overt toxicity", "setting": "[3]; single oral 100 mg/kg, regardless of the polymorphic crystal form", "value": "No overt toxicity"}, {"measurement": "Level of phospho-Akt Ser473", "setting": "[1]; 1 μM", "value": "80.8 ± 17.9", "unit": "% positive control"}, {"measurement": "Level of phospho-Akt Ser473", "setting": "[1]; 5 μM", "value": "62.4 ± 16.1", "unit": "% positive control"}, {"measurement": "Level of phospho-Akt Ser473", "setting": "[1]; 25 μM", "value": "9.7 ± 4.9", "unit": "% positive control"}]}]}
